# From patent publication US20240199618A1, “NOVEL N-ACYL-[3-SUBSTITUTED]-[8-SUBSTITUTED]-5,6-DIHYDRO-[1,2,4]TRIAZOLO[4,3-a]PYRAZINES AS SELECTIVE NK-3 RECEPTOR ANTAGONISTS, PHARMACEUTICAL COMPOSITION, METHODS FOR USE IN NK-3 RECEPTOR-MEDIATED DISORDERS” (Ogeda SA, priority 2013, published 2024)
# Columns and labels:
# [1] = tested on: circulating levels of luteinizing hormone (LH); test: Castrated male rat model, circulating luteinizing hormone (LH); format: in vivo; conditions: single oral dose less than or equal to 30 mg/kg, p<0.05
# Protocol: Castrated Male Rat Model to Assess the Effect of Compound of Invention on Circulating Levels of Luteinizing Hormone (LH)
# The effect of compounds of the invention to inhibit luteinizing hormone (LH) secretion is determined by the following biological studies.
# In humans and rodents, castration is well-precedented to permit heightened, persistent GnRH signaling and consequent elevation of circulating LH. Thus, a castrated rat model is used to provide a broad index for measurement of LH inhibition as a marker of test compound inhibition of the GnRH signaling pathway.
# Castrated adult male Sprague-Dawley (SD) rats (150-175 g,) were purchased from Janvier (St Berthevin, France). All animals were housed 2 per cage in a temperature-controlled room (22±2° C.) and 50±5% relative humidity with a 12 hour/12 hour light/dark cycles (lights off at […]). The animals were allowed 3 weeks of postoperative recovery prior to study. Animals were handled on a daily basis. Standard diet and tap water were provided ad libitum. Animal cage litters were changed once a week. On the study day, animals were acclimated to the procedure room for a period of one hour prior to the initiation of the experiment.
# Compounds of the invention were formulated in 0.5% methyl cellulose.
# After basal sampling (TO) a single dose of compounds of the invention or vehicle was administrated orally to rats. Blood samples were then collected at several time points post dosing (45, 90, 150, 300 and 420 minutes). Blood samples were obtained via tail vein bleed, drawn into EDTA-containing tubes and centrifuged immediately. Plasma samples were collected and stored in a −80° C. freezer until assayed. Serum LH levels were determined using radioimmunoassay kit from RIAZEN—Rat L H, Zentech (Liege, Belgium). Baseline was defined as the initial basal blood sample.
# [2] = tested on: body temperature (pyrogenic response to feeding); test: Thermoregulation in OVX ewes; format: in vivo, ewe; conditions: 1 mg/kg intravenous bolus
# Text: In Vivo Assay in OVX Ewes-Activity in Thermoregulation Experimental Methods: Evaluation of Thermoregulation in OVX Ewe […] After 4 months recovery, animals were acclimatised to housing in single pens for a period of 7 days with ad libitum access to water and […] lucerne hay. One day prior to experimentation, the animals received a jugular vein cannula ([…], Tuta Laboratories, Lane Cove, Australia). The cannulo were kept patent with heparinised saline. On the day of the experiment, compound n^o 5 of the present invention was formulated in physiological saline with 9% 2-hydroxypropyl-β-cyclodextrin at a concentration of 2 mg/mL. […] Animals were fed at 12 h00. Rectal temperatures were monitored with a probe at hourly intervals throughout the experiment, starting at 7 h40 and concluding at 15 h40.
# [3] = tested on: hot flashes in postmenopausal women; test: Phase 2a clinical trial, menopausal hot flashes; format: in vivo, human
# Protocol: Clinical Evaluation of compound n^o 5 for the Treatment of Menopausal Hot Flashes Objectives: The study objective is to evaluate the effect of compound n^o 5 on the severity and frequency of hot flashes in postmenopausal women. Design and Setting: The Phase 2a clinical trial was conducted in 80 patients, divided over 2 treatment groups of 40 patients each. […] The Phase 2a trial was double blind and randomized. This Phase 2a trial was conducted on healthy menopausal women (40-65 y) experiencing at least 49 moderate or severe hot flashes or night sweats over a period of 7 consecutive days in the screening period (maximum of 4 weeks). The study was conducted on an ambulatory basis where patients were asked to visit the clinical site on the first day of dosing and at weeks 4, 8, 12 during the treatment period with a follow-up visit 2-3 weeks after conclusion of dosing. Hot flashes were to be reported daily in the morning and the evening using an electronic diary tool. These reported events were used to calculate the Hot Flash Frequency and the Hot Flash Score. The weekly number of hot flashes was calculated in two ways: cumulatively for all severity grades, and cumulatively but leaving out the number of mild hot flashes. Hot Flash Frequencies were calculated for weeks 4 and 12. The Hot Flash Score (HFS) is a composite score combining both frequency and severity. This score is an accepted method to assess the overall severity of the hot flash burden and is calculated weekly. The score is a general measure of the number and severity of all hot flashes occurred during a given time period. The Hot Flash Score (based on severity and frequency) is calculated as follows: • day-score=(number of mild hot flashes/day×1)+(number of moderate hot flashes/day×2)+(number of severe hot flashes/day×3) • The weekly hot flash score is calculated: […] Higher scores indicate worse symptoms.
# [4] = tested on: serum Total Testosterone, LH, FSH in women with PCOS; test: Phase 2a clinical trial, PolyCystic Ovary Syndrome (PCOS); format: in vivo, human
# Protocol: Clinical Evaluation of Compound n^o 5 for the Treatment of PolyCystic Ovary Syndrome (PCOS)
# Objectives: The study objectives are to evaluate the effect of compound n^o 5 on the serum levels of Total Testosterone (TT), Luteinizing Hormone (LH), Follicle Stimulating Hormone (FSH) and LH:FSH ratio after 12 weeks of treatment.
# Design and Setting: The Phase 2a clinical trial was conducted in 48 patients, divided over 2 treatment groups of 24 patients each. One group received placebo while the other group received 180 mg of compound n^o 5 once daily (QD) for a period of 12 weeks. The Phase 2a trial was double blind and randomized. […] The study was conducted on an ambulatory basis where patients were asked to visit the clinical site on the first day of dosing and at weeks 3, 6, 9 and 12 during the treatment period with a follow-up visit 2-3 weeks after conclusion of dosing.
# Blood draws for LH, FSH and TT were taken every visit between 2 and 8 hours after drug intake (baseline and week 3-6-12). At week 9 the blood samples were taken in the morning before drug intake (i.e. at trough PK concentrations for compound n^o 5). These blood draws were the basis for assessing the primary (TT) and secondary (LH, FSH, LH:FSH ratio) endpoints. The primary endpoint of Total Testosterone was measured according to GLP using an LC-MS/MS method.
# PCOS is typically characterized by excessive ovarian androgen production, failure of ovulation, and slightly enlarged ovaries with numerous peripheral small follicles that appear as cysts. The disorder is commonly accompanied by infertility. Typically, the clinical features of PCOS are associated with hypersecretion of LH and androgens (TT) but with normal serum concentrations of FSH hormone. Laboratory examinations reveal elevated TT levels in about 50% of the patients, accompanied by an elevated LH:FSH ratio (>2) due to the imbalanced secretion of both hormones (a ratio of 1 is considered normal).
# [5] = 90 mg BID, postmenopausal women
# [6] = Baseline, 90 mg BID group, moderate and severe hot flashes
smiles,measurement,setting,value
"Cc1nsc(-c2nnc3n2CCN(C(=O)c2ccc(F)cc2)[C@@H]3C)n1 [Compound 5, (R)-(4-fluorophenyl)(8-methyl-3-(3-methyl-1,2,4-thiadiazol-5-yl)-5,6-dihydro-[1,2,4]triazolo[4,3-a]pyrazin-7(8H)-yl)methanone]",circulating LH levels,[1],significantly suppressed
same,pyrogenic response to feeding,[2],not observed
same,body temperature at the 12 h40 time point,"[2]; after feeding at 12 h00, mean±SEM",38.9±0.2 °C
same,Frequency of hot flashes in comparison of placebo,[3]; [5],significantly reduced
same,Score of hot flashes in comparison of placebo,[3]; [5],significantly reduced
same,Hot Flash Score (mean),[3]; [6],29.08
same,Hot Flashes Frequency (mean),[3]; [6],11.84
same,Hot Flash Score (mean),"[3]; Week 4, 90 mg BID oral",2.96
same,Hot Flashes Frequency (mean),"[3]; Week 4, 90 mg BID oral",1.35
same,Hot Flash Score (mean),"[3]; Week 12, 90 mg BID oral",1.70
same,Hot Flashes Frequency (mean),"[3]; Week 12, 90 mg BID oral",0.79
same,FSH secretion,"[4]; 180 mg QD, women with PCOS",preserved
same,LH,"[4]; 180 mg QD, women with PCOS",significant decrease
same,LH:FSH in comparison of placebo,"[4]; 180 mg QD, women with PCOS",significantly reduced
same,TT in comparison of placebo,"[4]; 180 mg QD, women with PCOS",significantly reduced
same,Total Testosterone (mean),"[4]; Baseline, 180 mg QD group",2.16 nmol/L
same,Total Testosterone (mean),"[4]; Week 6, 180 mg QD oral",1.41 nmol/L
same,Total Testosterone (mean),"[4]; Week 12, 180 mg QD oral",1.39 nmol/L
